Measured values reported in ChEMBL document CHEMBL1201862, “PubChem BioAssay data set” (2004).
Activity calls are given as the source filed them.

Key:
[1] = target: T1, Caspase-6 (Homo sapiens, UniProt P55212); experiment: inhibition of CASP6 peptide cleavage – biochemical, VEID-R110 fluorescence, cherry-pick, dose response (AID 720632)
T1 sequence (P55212 whole entry): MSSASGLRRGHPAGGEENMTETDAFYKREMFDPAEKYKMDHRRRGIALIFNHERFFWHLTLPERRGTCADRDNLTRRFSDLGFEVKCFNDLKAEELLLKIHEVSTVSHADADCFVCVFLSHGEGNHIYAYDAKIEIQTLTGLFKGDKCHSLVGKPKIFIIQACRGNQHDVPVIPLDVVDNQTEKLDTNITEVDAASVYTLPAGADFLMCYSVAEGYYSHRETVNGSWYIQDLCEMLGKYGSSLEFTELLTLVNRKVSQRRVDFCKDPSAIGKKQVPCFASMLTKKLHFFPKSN

[2] = target: Paired box protein Pax-8 (Homo sapiens, UniProt Q06710); experiment: PAX8 transcriptional activity inhibition in RMG-I – RMG-I cells, luciferase, cherry-pick, dose response (AID 687027); type: functional, cell-based;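 further: luciferase reporter driven by Pax8 target thyroperoxidase promoter measured by SteadyGlo luminescence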
Chain of Paired box protein Pax-8 (Q06710 whole entry): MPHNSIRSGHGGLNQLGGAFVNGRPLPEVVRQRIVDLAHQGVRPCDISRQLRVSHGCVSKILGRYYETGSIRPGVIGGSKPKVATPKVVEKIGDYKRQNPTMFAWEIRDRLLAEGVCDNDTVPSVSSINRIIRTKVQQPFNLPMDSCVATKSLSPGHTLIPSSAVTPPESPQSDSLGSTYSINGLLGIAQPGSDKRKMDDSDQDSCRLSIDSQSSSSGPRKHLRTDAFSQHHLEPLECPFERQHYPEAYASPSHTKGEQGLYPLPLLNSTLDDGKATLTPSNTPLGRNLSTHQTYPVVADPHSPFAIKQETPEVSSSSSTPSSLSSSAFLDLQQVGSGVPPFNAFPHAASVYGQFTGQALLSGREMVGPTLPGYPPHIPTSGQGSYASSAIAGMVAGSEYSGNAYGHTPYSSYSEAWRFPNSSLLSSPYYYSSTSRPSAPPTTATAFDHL

[3] = target: Genome polyprotein (dengue virus type 2, UniProt P29990); experiment: flavivirus cap methylation enzyme inhibition – biochemical, confirmation dose response, primary screen (AID 588689); type: functional
Chain of Genome polyprotein (P29990 2492-3391 limits assumed): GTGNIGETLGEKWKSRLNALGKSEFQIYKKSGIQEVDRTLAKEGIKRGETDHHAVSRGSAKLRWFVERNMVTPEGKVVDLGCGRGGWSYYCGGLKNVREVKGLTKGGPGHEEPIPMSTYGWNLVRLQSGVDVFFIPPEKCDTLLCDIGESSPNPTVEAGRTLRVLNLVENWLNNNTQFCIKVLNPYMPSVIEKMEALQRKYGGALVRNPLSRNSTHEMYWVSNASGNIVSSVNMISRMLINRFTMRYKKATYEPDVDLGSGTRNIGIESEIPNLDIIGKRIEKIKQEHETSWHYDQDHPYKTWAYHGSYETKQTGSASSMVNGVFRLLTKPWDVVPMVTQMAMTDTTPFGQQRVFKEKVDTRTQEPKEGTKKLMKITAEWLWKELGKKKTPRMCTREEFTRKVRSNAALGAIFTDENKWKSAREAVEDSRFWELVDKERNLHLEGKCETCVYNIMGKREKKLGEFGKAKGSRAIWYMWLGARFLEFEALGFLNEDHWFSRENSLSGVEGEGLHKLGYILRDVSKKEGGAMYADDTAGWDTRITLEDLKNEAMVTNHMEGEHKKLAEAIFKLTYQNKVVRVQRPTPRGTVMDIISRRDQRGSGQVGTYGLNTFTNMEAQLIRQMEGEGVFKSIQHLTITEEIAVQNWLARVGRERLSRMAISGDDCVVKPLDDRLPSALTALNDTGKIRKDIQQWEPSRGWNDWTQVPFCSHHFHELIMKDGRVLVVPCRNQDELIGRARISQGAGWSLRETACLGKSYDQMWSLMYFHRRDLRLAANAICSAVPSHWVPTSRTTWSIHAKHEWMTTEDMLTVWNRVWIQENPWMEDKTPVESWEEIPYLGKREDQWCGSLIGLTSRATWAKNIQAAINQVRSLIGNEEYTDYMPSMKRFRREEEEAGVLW

[4] = target: T2, Rac GTPase-activating protein 1 (Homo sapiens, UniProt Q9H0H5); experiment: blockers of MgcRacGAP-driven Rac1 GTP hydrolysis – biochemical, ADP Hunter fluorescence, primary and confirmatory, confirmation (AID 624330); type: functional
T2 sequence (Q9H0H5 whole entry): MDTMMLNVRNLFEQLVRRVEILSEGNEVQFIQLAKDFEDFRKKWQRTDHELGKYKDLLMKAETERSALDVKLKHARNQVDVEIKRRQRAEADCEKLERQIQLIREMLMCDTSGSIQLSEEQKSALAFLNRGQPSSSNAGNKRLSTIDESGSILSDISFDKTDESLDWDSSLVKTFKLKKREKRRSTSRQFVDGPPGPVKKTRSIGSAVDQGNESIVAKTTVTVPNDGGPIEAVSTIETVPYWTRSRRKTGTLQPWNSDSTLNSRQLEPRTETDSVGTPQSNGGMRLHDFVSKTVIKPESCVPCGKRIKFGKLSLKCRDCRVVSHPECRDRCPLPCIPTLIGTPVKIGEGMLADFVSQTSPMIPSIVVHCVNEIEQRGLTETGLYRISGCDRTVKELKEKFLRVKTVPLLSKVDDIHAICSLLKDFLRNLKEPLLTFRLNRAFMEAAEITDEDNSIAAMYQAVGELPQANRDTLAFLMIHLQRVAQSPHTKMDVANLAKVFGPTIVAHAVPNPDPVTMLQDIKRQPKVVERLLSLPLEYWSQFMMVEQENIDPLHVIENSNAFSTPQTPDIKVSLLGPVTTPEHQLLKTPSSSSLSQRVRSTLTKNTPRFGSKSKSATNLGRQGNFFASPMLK

[5] = target: T3, Endoribonuclease toxin MazF (Escherichia coli K-12, UniProt P0AE70); experiment: activation of MazEF endoribonuclease cleavage – biochemical, fluorescence, single-stranded RNA substrate, uHTS hits, dose response (AID 588481); type: functional
T3 sequence (P0AE70 whole entry): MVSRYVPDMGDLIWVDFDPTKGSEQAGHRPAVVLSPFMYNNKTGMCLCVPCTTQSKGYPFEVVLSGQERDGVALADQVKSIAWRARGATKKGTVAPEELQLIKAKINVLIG

[6] = target: T3, Endoribonuclease toxin MazF; experiment: substrate-only fluorescence increase artefacts – biochemical, single-stranded RNase substrate, counter-screen for MazEF activator project, dose response (AID 588502); type: functional
[7] = test system: HEK293; experiment: EBV LMP1 TES2 canonical NF-kB signalling blockers – cell-based, HEK293, luciferase, cherry-pick, dose response (AID 588343); type: functional; conditions: Homo sapiens
[8] = target: T4, Tyrosyl-DNA phosphodiesterase 2 (Homo sapiens, UniProt O95551); experiment: potency against TDP2 phosphodiesterase activity – biochemical, epi absorbance, IC50, dose response (AID 743297)
T4 sequence (O95551 whole entry): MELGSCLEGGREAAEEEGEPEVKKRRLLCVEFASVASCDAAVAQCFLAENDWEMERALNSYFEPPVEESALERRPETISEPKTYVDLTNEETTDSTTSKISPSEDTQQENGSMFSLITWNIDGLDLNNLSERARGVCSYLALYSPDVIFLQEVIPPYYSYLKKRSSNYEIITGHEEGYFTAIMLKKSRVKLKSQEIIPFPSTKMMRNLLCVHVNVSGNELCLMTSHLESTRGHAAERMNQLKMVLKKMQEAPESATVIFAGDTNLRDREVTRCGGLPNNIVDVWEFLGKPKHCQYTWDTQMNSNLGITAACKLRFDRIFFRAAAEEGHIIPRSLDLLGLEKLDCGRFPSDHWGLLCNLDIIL

[9] = target: T5, Replicative DNA helicase DnaB (Mycobacterium tuberculosis, UniProt P9WMR3); experiment: DnaB intein splicing inhibitors, dose response, biochemical, cell-free fluorescence (AID 449749); type: functional
T5 sequence (P9WMR3 whole entry): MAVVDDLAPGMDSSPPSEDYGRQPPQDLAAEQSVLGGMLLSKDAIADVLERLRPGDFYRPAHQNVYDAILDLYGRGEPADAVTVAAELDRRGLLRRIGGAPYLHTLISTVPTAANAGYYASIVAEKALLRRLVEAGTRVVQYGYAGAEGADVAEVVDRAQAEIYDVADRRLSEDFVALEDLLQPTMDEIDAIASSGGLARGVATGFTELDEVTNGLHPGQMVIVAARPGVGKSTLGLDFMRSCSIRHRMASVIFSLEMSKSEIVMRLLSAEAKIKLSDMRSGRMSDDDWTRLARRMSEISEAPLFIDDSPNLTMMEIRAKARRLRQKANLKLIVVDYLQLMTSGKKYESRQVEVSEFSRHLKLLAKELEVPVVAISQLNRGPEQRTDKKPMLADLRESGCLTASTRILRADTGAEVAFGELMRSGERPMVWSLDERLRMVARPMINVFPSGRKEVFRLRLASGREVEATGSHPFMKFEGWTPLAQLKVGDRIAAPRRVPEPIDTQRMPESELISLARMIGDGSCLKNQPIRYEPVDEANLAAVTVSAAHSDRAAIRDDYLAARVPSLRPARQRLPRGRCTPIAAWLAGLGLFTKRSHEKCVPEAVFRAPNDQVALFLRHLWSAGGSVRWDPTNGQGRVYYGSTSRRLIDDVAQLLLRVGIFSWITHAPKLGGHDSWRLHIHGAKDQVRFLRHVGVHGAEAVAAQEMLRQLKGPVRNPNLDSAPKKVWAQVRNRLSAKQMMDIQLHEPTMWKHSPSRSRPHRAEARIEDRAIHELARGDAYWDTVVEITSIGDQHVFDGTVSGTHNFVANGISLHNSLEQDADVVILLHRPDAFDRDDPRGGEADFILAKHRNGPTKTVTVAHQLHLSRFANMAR

[10] = NIH3T3 cell viability loss – ATP luminescence, mouse fibroblasts, counter-screen, dose response (AID 2010); type: functional, cell-based;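 further: cells exposed to compound for about 90 hours before reading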
[11] = Trypanosoma cruzi growth suppression in host cells – NIH3T3 host cells, beta-gal luminescence, confirmation (AID 2044); type: functional, cell-based;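 further: intracellular parasites grown in NIH/3T3 mouse fibroblasts as host cells; luminescent beta-galactosidase reporter signal from transgenic T. cruzi replicating inside host cells; inhibitors lower the luminescence signal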
[12] = target: T6, Apoptotic protease-activating factor 1 (Homo sapiens, UniProt O14727); type: functional
T6 sequence (O14727 whole entry): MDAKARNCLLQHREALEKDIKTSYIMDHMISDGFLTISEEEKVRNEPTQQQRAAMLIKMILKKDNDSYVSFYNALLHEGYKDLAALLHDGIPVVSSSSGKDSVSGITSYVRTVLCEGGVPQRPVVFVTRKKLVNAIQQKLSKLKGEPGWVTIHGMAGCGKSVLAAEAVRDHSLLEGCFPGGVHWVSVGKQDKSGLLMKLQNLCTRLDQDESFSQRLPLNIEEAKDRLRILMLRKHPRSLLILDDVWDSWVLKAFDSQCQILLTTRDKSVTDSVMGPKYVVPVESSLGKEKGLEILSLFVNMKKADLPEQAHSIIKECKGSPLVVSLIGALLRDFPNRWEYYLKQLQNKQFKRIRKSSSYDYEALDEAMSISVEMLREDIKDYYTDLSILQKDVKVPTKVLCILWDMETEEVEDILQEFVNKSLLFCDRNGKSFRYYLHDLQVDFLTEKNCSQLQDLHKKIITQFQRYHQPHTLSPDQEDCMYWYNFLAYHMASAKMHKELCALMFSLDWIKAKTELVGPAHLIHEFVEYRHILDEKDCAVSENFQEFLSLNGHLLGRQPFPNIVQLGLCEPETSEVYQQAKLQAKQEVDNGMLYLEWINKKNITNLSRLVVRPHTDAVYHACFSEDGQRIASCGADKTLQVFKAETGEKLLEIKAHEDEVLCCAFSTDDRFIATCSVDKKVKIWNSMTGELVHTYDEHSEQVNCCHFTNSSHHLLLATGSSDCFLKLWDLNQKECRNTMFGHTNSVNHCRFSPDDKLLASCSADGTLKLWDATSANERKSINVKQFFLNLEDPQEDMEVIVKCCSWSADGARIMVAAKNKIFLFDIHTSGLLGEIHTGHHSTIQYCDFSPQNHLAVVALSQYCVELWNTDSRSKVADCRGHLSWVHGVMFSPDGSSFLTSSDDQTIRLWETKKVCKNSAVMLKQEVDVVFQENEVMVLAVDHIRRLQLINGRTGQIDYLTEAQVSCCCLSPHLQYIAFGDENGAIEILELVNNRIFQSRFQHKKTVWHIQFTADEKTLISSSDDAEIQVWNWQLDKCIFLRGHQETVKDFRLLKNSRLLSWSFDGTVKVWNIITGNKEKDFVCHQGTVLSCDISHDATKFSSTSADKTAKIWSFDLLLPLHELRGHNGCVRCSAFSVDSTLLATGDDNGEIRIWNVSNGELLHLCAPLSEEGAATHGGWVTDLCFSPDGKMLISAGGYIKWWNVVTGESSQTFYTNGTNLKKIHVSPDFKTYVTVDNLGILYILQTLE

[13] = test system: INS1; experiment: INS-1E survival protection against cytokine death – cell-based, luminescence, retest, dose response (AID 449756); type: functional; conditions: Rattus norvegicus;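 further: cell death triggered by IL-1 beta plus TNF-alpha plus IFN-gamma mixture; protective hits raise ATP signal compared with cytokine alone wells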
[14] = target: Dual specificity tyrosine-phosphorylation-regulated kinase 1A (Rattus norvegicus, UniProt Q63470); type: biochemical, Homo sapiens
[15] = target: T7, Protein RecA (Mycobacterium tuberculosis, UniProt P9WHJ3); experiment: Fluorescence Cell-Free Homogeneous Dose Retest to Identify Inhibitors of RecA-Intein Splicing Activity. [Related pubchem assays (depositor defined):AID2097, AID2223, AID489010, AID492950]; type: functional
T7 sequence (P9WHJ3 whole entry): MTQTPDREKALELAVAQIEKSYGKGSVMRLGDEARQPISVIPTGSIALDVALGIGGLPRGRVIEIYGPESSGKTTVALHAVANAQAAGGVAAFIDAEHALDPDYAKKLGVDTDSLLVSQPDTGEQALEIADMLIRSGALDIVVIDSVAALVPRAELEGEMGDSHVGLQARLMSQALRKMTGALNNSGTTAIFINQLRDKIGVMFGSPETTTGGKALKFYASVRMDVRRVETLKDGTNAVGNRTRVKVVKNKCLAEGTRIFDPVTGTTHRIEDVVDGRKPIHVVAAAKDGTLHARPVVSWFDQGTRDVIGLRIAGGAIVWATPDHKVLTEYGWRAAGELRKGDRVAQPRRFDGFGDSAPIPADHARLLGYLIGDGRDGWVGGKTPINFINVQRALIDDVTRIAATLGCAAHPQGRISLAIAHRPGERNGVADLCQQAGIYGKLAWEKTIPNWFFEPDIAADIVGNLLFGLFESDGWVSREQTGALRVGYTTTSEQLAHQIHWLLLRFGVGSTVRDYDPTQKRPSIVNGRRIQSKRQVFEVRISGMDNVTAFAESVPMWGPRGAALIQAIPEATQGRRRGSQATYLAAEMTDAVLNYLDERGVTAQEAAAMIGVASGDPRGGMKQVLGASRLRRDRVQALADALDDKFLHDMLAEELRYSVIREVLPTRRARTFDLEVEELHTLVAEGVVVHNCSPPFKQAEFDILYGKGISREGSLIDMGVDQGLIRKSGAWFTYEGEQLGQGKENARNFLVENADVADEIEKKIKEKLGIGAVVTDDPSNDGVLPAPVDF

For Nc1nc(Sc2ccc([N+](=O)[O-])c3nonc23)c2[nH]cnc2n1, the AC50 [1] was 5.68 µM (active), the AC50 [2] was 2.17 µM (active) and the IC50 [3] was 16 µM (active). The IC50 [4] was 49.7 µM (active).

For Cc1ccc(-n2nnnc2SCC(=O)c2c(N)n(C3CC3)c(=O)[nH]c2=O)cc1C, the EC50 [5] was > 99 µM (inactive) and the EC50 [6] was > 99 µM (inactive).

In the case of CC(C)Nc1nnc(SCC(=O)c2c(N)n(Cc3ccccc3)c(=O)n(C)c2=O)s1, the AC50 [7] is reported as 101 µM (active).

For Cc1ccc(NC2=C(N3CCCCC3)C(=O)c3ccccc3C2=O)cc1, the IC50 [8] was > 128 µM (inactive), the AC50 [9] was 7.31 µM (active) and the EC50 [10] was > 30 µM (not active). The EC50 [11] was 0.629 µM (active), the IC50 [12] was 4.88 µM (active) and the AC50 [13] was 0.489 µM (active). The AC50 [14] was 11 µM (active) and the EC50 [15] was 0.619 µM (active).
